Experimental findings from ChEMBL document CHEMBL1157999, “A new epidioxy sterol as an antifouling substance from a palauan marine sponge, lendenfeldia chondrodes” (1999) are described below.

Format in all cases: functional, Mytilus edulis/galloprovincialis MCLGV-2007
Experiment [1] deals with Mytilus edulis. In words: Antifouling activity against blue mussel assessed as responding mussel at 10 ppm by foot stimulant method.
Experiment [2] deals with Mytilus edulis. Nature of the experiment: Antifouling activity against blue mussel assessed as responding mussel at 100 ppm by foot stimulant method.
For experiment [3], the system named is Mytilus edulis. In words: Antifouling activity against blue mussel assessed as responding mussel at 1 ppm by foot stimulant method.

Consider `CC(=O)C1=CC[C@H]2[C@]3(C)CC[C@H]4C(C)(C)CCC[C@]4(C(=O)O)[C@H]3CC(=O)[C@]2(C)[C@H]1C=O`, for which the Activity in experiment [1] came out at 100%; in experiment [2], 100%; in experiment [3], 95%.
Turning to `CC(C)CCC[C@@H](C)[C@H]1CC[C@@H]2[C@]1(C)CC[C@H]1[C@]23C=C[C@]2(C[C@@H](O)CC[C@]12C)OO3`, the Activity in experiment [1], in experiment [2] and in experiment [3] was 0% each time.
Take `C=C(CC[C@@H](C)[C@H]1CC[C@@H]2[C@]1(C)CC=C1[C@]23C=C[C@]2(C[C@@H](O)CC[C@]12C)OO3)C(C)C`: the Activity in experiment [1], in experiment [2] and in experiment [3] was 0% each time.
As to `CC(=O)OC[C@]12CCCC(C)(C)[C@@H]1CC[C@]1(C)[C@@H]2C[C@H]2OC(=O)[C@H]3[C@H](C(C)=O)[C@@H](O)C[C@@H]1[C@]23C`, the Activity in experiment [1] is given as 100%; in experiment [2], 100%; in experiment [3], 90%.
Consider `CC(=O)O[C@H]1C[C@H]2[C@@](C)(CC[C@H]3C(C)(C)CCC[C@@]32C=O)[C@@H]2CC=C(C(C)=O)[C@H](C=O)[C@@]12C`, for which the Activity in experiment [1] is given as 55%; in experiment [2], 75%; in experiment [3], 10%.
Regarding `C=CC(CC[C@@H](C)[C@H]1CC[C@@H]2[C@]1(C)CC[C@H]1[C@]23C=C[C@]2(C[C@@H](O)CC[C@]12C)OO3)(OO)C(C)C` (mixture of isomers), the Activity was 20% in experiment [1], 95% in experiment [2] and 0% in experiment [3].
